Reference: paper PMC8587849, “Antimicrobial and Anticancer Application of Silver(I) Dipeptide Complexes” (Molecules, 2021)
“And” between values parts separate entries of the source, which are not always exact repeats. Equal entries are not always repeated. Where two headings read alike, the source gives them in different places.

Experiments:
[1] = system: MCF-7; design: method as in PMID 33461021; settings: cited from earlier work
[2] = system: MDA-MB-231; design: method as in PMID 33461021; settings: cited from earlier work
[3] = system: MCF-7 cells; settings: cited from earlier work
[4] = system: Escherichia coli (E. coli) CCM 3988; assay: Antibacterial activity, macrodilution method; format: cell-based
Description: (§4) Cultures of bacteria (in Mueller-Hinton broth, MHB) and yeasts (in Sabouraud’s growth medium, SB) were incubated under shaking (250 rpm) at 37 °C. The growth of bacteria and yeasts was evaluated by measuring the absorbance of the growing cultures (A550) until the cultures reached the stationary growth phase. […] The final concentration of DMSO never exceeded 1.0 vol. % in the control or treated samples. […] The IC50 and MIC90 with respect to MIC80 values were evaluated from toxicity curves.

[5] = system: Staphylococcus aureus CCM 3953; assay: Antibacterial activity, macrodilution method; format: cell-based; settings: S. aureus
Description: as §4

[6] = system: methicillin-resistant Staphylococcus aureus L12; assay: Antibacterial activity, macrodilution method; format: cell-based; settings: S. aureus L12 (MRSA)
Description: as §4

[7] = system: Staphylococcus epidermidis CCM 7221; assay: Antibacterial activity, macrodilution method; format: cell-based; settings: S.epidermidis
Description: as §4

[8] = system: Candida parapsilosis ATCC 22019; assay: Antifungal activity (yeast), macrodilution method; format: cell-based; settings: C. parapsilosis
Description: as §4

[9] = system: Candida albicans SC 5314; assay: Antifungal activity (yeast), macrodilution method; format: cell-based; settings: C. albicans
Description: (§5) Cultures of bacteria (in Mueller-Hinton broth, MHB) and yeasts (in Sabouraud’s growth medium, SB) were incubated under shaking (250 rpm) at 37 °C. The growth of bacteria and yeasts was evaluated by measuring the absorbance of the growing cultures (A550) until the cultures reached the stationary growth phase. […] During culturing, the diameters of growing fungal colonies were measured at regular intervals [71, 72]. […] The final concentration of DMSO never exceeded 1.0 vol. % in the control or treated samples. […] The IC50 and MIC90 with respect to MIC80 values were evaluated from toxicity curves.

[10] = system: Rhizopus oryzae CCM F-8284; assay: Antifungal activity (filamentous fungi), macrodilution on solidified PDA; format: cell-based
Description: as §5

[11] = system: Alternaria alternata CCM F-128; assay: as above; format: cell-based; settings: A. alternata
Description: as §5

[12] = system: A.flavus; assay: Antifungal activity (filamentous fungi); format: cell-based; settings: read-out: IC50 and MIC100 (class symbol)
Description: as §5

[13] = system: Microsporum gypseum CCM F-8342; assay: Antifungal activity (filamentous fungi), macrodilution on solidified PDA; format: cell-based; settings: M.gypseum; read-out: IC50 and MIC100 (class symbol)
Description: as §5

[14] = system: S. aureus biofilm; assay: Influence on S. aureus biofilm formation, crystal violet staining; format: cell-based; settings: for A570 (biofilm, crystal violet): control A570 = 0.47; for I: biofilm intensity: control strong
Description: The biofilm was qualified by the crystal violet staining method. Briefly, overnight cultures of bacteria S.aureus (in MHB) and yeasts C.parapsislosis (in SB) were prepared. The fresh prepared growth media MHB and SB were inoculated with the overnight culture for a final concentration of 5 × 10^6 cells mL^−1. The microbial biofilm was formed in 96-well microplates for adherent cells. […] Prepared cultures were incubated for 2 h at 37 °C. […] The treatment with DMSO (solvent) alone served as a control. The inoculated microplates were incubated at 37 °C for the next 46 h. […] Microplates with mature biofilm were decanted and washed using 200 μL of saline solution. The plate was left for 15 min to dry completely at laboratory temperature. Then, 110 μL of 0.4% crystal violet dye was added to each well, and the plate was incubated for 15 min at laboratory temperature. After the decantation, the plate was washed 3 times with 200 μL of saline solution. Then, 200 μL of 96% ethanol was added. The microplate was left to incubate for 15 min at laboratory temperature. After the transfer of the well content to a clean microplate, the absorbance (570 nm) of released crystal violet (proportionate to biofilm cell density) was measured,, and the values were evaluated as weak biofilm formation A570 <0.1; 0.199>, medium biofilm formation A570 <0.2; 0.3>, strong biofilm formation A570 <0.301; 0.999>, or very strong biofilm formation A570 ≥ 1.00.

[15] = system: HeLa; assay: MTS antiproliferative assay; format: cell-based, human; settings: 72 h
Description: (§1) After 72 h of incubation, 10 µL of MTS was added to each well. […] IC50 values were calculated from MTS analyses.

[16] = system: MCF-7; assay: MTS antiproliferative assay; format: cell-based, human; settings: 72 h
Description: as §1

[17] = system: BLM; assay: MTS antiproliferative assay; format: cell-based, human; settings: BLM; MTS, 72 h
Description: (§2) Cells were maintained in standard conditions with an atmosphere containing 5% CO2 at 37 °C.
as §1

[18] = system: HCT116; assay: MTS antiproliferative assay; format: cell-based, human; settings: 72 h
Description: as §2, §1

[19] = system: Jurkat; assay: MTS antiproliferative assay; format: cell-based, human; settings: 72 h
Description: as §2, §1

[20] = system: MDA-MB-231; assay: MTS antiproliferative assay; format: cell-based, human; settings: 72 h
Description: as §2, §1

[21] = system: BJ-5ta; assay: MTS assay on fibroblasts; format: cell-based; settings: BJ-5ta human skin fibroblasts, 72 h
Description: as §1

[22] = system: CT DNA; assay: UV-Vis absorption titration with CT DNA; format: binding, calf; settings: 0.01 M Tris-HCl pH 7.4; complex 7.85 × 10^−5 M
Description: UV–vis spectra were measured in 0.01 M Tris-HCl buffer (pH 7.4) using a Varian Cary 100 Bio spectrophotometer in the range of 230–320 nm and recorded at room temperature (24 °C) using a quartz cuvette of 1 cm path length. The concentration of investigated Ag(I) complexes was 7.85 × 10^−5 M. During the titration, an aliquot of buffered CT DNA solution was added to each cuvette (sample and reference) to eliminate the absorbance of DNA itself. The DNA concentration per nucleotide was determined by absorption spectroscopy using the molar absorption coefficient (6600 M^−1cm^−1) at 260 nm.

[23] = system: CT DNA–HO system; assay: Fluorescence competitive binding with Hoechst 33258; design: species or system calf; settings: displacement of Hoechst 33258 from CT DNA; 462 nm; 10 mM Tris-HCl pH 7.4
Description: The fluorescence competitive binding studies of silver(I) complexes with Hoechst 33 258 (HO) were performed on a Varian Cary Eclipse spectrophotometer. The emission spectra of DNA–HO were measured in the range of 400–550 nm using an excitation wavelength of 343 nm with a slit width of 5 nm for the excitation and 5 nm for the emission beam. […] Ksv quenching constant was determined according to the classical Stern-Volmer Equation (1) in [63, 75]:F0/F = 1 + KSV [Q](1) where F0 and F are the fluorescence intensities in the absence and the presence of the quencher at 462 nm, KSV is the Stern-Volmer quenching constant and [Q] is the concentration of the quencher.

[24] = system: BLM cells; assay: Cell cycle analysis by flow cytometry; format: cell-based, human; settings: treated with IC50
Description: (§3) Prior to each analysis, cells were washed in PBS, followed by resuspending in staining solution (0.5 mg/mL ribonuclease A, 0.2% final concentration Triton X-100, propidium iodide 0.025 mg/mL in 500 µL PBS) (all Sigma Aldrich), and incubated for 30 min at room temperature in the dark. For analysis of stained cells, a BD FACSCalibur flow cytometer (BD Bio-sciences) was used. A minimum of 1 × 10^4 events were analysed per analysis.

[25] = system: HCT116 cells; assay: Cell cycle analysis by flow cytometry; format: cell-based, human; settings: treated with IC50
Description: as §3

[26] = system: Jurkat cells; assay: Cell cycle analysis by flow cytometry; format: cell-based, human; settings: treated with IC50
Description: as §3

[27] = system: MDA-MB-231 cells; assay: Cell cycle analysis by flow cytometry; format: cell-based, human; settings: treated with IC50
Description: as §3

[28] = system: S. thypimurium TA100; assay: Ames test, plate incorporation method; format: cell-based, Salmonella Typhimurium; settings: positive control, 100µg
Description: (§6) Salmonella Typhimurium TA 98 and TA 100 were obtained from the Czech Collection of Microorganisms. As a positive mutagen, 3-(5-nitro-2-furyl) acrylic acid (NFAA) was used.

[29] = system: S. thypimurium TA98; assay: Ames test, plate incorporation method; format: cell-based, Salmonella Typhimurium; settings: positive control, 100µg
Description: as §6

[Ag3(Gly)2NO3]n
IC50 [1]: 2.6 ± 0.1 µM | IC50 [2]: 2.7 ± 0.2 µM | cells in sub-G0 population ([3]; MFC-7 cancer cells, Control 9.8%, ref Banti et al.): 42.7% | cells in S phase [3]: 24.1%

[Ag2(HGlyAsp)(NO3)]n [AgGlyAsp]
IC50 [4]: 17 µM | MIC90 [4]: 23 µM | IC50 [5]: 51 µM | MIC90 [5]: 96 µM | IC50 [6]: 31 µM | MIC90 [6]: 49 µM | IC50 [7]: 25 µM | MIC90 [7]: 50 µM | IC50 [8]: 50 µM | MIC80 [8]: 100 µM | IC50 [9]: 73 µM | MIC80 [9]: 100 µM | IC50 ([10]; read-out: IC50): 73 µM | MIC100 ([10]; suffix s = fungistatic): 100 µM | IC50 ([11]; read-out: IC50): 35 µM | MIC100 ([11]; suffix s = fungistatic): > 100 µM | IC50 [12]: > 100 µM | IC50 [13]: > 100 µM | A570 (biofilm, crystal violet) ([14]; complex concentration 5 µM): 0.36 | I: biofilm intensity ([14]; complex concentration 5 µM): strong (strong biofilm formation A570 <0.301; 0.999>) | A570 (biofilm, crystal violet) ([14]; complex concentration 10 µM): 0.35 | I: biofilm intensity ([14]; complex concentration 10 µM): strong (strong biofilm formation A570 <0.301; 0.999>) | A570 (biofilm, crystal violet) ([14]; complex concentration 50 µM): 0.24 | A570 (biofilm, crystal violet) ([14]; complex concentration 100 µM): 0.25 | I: biofilm intensity ([14]; complex concentration 100 µM): medium (medium biofilm formation A570 <0.2; 0.3>) | IC50 [15]: 33.3 µM | IC50 [16]: 33.8 µM | IC50 [17]: 35.6 µM | IC50 [18]: 35.5 µM | IC50 [19]: 36.8 µM | IC50 [20]: 33.6 µM | IC50 [21]: 57.6 µM | Hypochromism [22]: 30% and 30.8% | Δλmax (red shift on addition of CT DNA) [22]: 13 nm | KSV (Stern-Volmer quenching constant) [23]: 8.33 ± 0.07 × 10^4 M^−1 | cells in G2/M ([24]; 24 h): 14.8 ± 0.2% | cells in S ([24]; 24 h): 13.8 ± 3.0% | cells in Sub-G0 ([24]; 24 h): 51.7% | cells in G2/M ([24]; 48 h): 10.9 ± 2.8% | cells in S ([24]; 48 h): 10.8 ± 2.5% | cells in Sub-G0 ([24]; 48 h): 56.1% | cells in Sub-G0 ([24]; 72 h): 59.3% | cells in G2/M ([25]; 24 h): 16.8 ± 2.4% | cells in S ([25]; 24 h): 16.3 ± 2.3% | cells in G2/M ([25]; 48 h): 11.7 ± 3.4% | cells in S ([25]; 48 h): 10.3 ± 1.3% | cells in G2/M ([26]; 24 h): 15.5 ± 2.7% | cells in S ([26]; 24 h): 14.0 ± 0.6% | cells in G2/M ([26]; 48 h): 6.3 ± 0.3% | cells in S ([26]; 48 h): 12.4 ± 1.1% | cells in G2/M ([27]; 24 h): 30.6% | cells in G2/M ([27]; 48 h): 25.8 ± 0.5% | cells in S ([27]; 48 h): 10.6 ± 1.9% | cells in G2/M ([27]; 72 h): 9.6 ± 1.2% | cells in S ([27]; 72 h): 7.1 ± 2.4%

O=C(O)C=Cc1ccc([N+](=O)[O-])o1 [NFAA, 3-(5-nitro-2-furyl) acrylic acid]
Revertants CFU No. ± SD [28]: 1352± 124 CFU | Revertants CFU No. ± SD [29]: 28 ± 2 CFU
